The text below walks through data of publication PMC11249953, “c-KIT inhibitors reduce pathology and improve behavior in the Tg(SwDI) model of Alzheimer’s disease” (Life Science Alliance, 2024).

Several values for one entry are separate records, joined by “and”; a condition that tells them apart may be missing. Equal values may be shown once.

In one data set the target is T1, PDGFRa (Homo sapiens, UniProt P16234).
T1 construct: DNA label for qPCR read-out (T7 phage fusion or DNA tag); purchased Eurofins DiscoverX Corporation; host or cells: T7 phage in E. coli (BL21-derived) or HEK-293
T1 sequence (P16234 24-1089): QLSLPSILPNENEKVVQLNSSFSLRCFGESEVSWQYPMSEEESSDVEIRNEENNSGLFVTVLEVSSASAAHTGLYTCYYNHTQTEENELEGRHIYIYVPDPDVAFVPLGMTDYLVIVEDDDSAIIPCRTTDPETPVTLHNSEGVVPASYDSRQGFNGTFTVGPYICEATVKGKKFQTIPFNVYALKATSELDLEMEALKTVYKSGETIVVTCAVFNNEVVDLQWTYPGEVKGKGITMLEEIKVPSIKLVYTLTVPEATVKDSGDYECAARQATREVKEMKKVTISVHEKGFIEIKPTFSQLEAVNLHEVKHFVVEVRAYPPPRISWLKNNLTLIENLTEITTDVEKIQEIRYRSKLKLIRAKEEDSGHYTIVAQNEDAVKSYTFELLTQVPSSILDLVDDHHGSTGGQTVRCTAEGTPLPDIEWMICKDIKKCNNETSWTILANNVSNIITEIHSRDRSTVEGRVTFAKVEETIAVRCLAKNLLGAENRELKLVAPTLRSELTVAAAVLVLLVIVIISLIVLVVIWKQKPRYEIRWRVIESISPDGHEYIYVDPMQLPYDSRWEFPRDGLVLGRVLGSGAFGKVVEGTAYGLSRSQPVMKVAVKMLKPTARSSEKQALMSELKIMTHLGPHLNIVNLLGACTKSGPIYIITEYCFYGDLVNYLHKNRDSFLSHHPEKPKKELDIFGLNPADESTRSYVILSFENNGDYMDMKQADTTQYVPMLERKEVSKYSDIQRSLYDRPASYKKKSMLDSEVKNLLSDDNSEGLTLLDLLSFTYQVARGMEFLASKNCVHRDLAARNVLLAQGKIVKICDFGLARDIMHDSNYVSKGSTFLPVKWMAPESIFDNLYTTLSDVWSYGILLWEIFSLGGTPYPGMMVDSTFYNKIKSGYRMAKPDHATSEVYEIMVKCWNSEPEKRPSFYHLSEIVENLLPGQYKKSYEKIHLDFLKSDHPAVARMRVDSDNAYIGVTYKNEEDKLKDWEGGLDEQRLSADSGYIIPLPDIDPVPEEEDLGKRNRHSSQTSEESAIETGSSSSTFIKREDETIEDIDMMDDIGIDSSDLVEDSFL
The experiment in a line: KINOMEscan competition binding, PDGFRa. The following applies: 10 µM compound; for remaining binding at 10 µM: lower = stronger binding, read-out: PDGFRa %Ctrl @ 10000nM (POC). The procedure:
(§1) The KINOMEscan screening platform (Eurofins DiscoverX Corporation) was performed using active site-directed competition binding assay to quantitatively measure interactions between BK40143 and BK40197 and more than 450 human kinases and disease relevant mutant variants. […] Screening “hits” are identified by measuring the amount of kinase captured in test (BK40143 and BK40197) versus control samples by using a quantitative and ultra-sensitive qRT-PCR method that detects the associated DNA label. BK40143 and BK40197 were screened at 10 µM concentration, and results for primary screen binding interactions were reported as “% Ctrl” (POC), where lower numbers indicate stronger hits and calculated as follows: [test compound signal−positive control signal/negative control signal−positive control signal]×100
(§2) negative control = DMSO (100% Ctrl)
(§3) positive control = control compound (0% Ctrl)
(§4) Based on screening data from of profiled compounds, a proportional relationship between primary screening results and corresponding compound/target affinities can be described as binding constants (Kd values) for the indicated ranges of POC values with tighter binding (higher affinity) interactions associated with lower POC values and weaker binding (lower affinity) associated with higher POC values. Briefly, kinase-tagged T7 phage strains were grown in parallel in 24-well blocks in an E. coli host derived from the BL21 strain. E. coli were grown to log-phase and infected with T7 phage from a frozen stock (multiplicity of infection = 0.4) and incubated with shaking at 32°C until lysis (90–150 min). The lysates were centrifuged (6,000g) and filtered (0.2 μm) to remove cell debris. The remaining kinases were produced in HEK-293 cells and subsequently tagged with DNA for qRT-PCR detection. Streptavidin-coated magnetic beads were treated with biotinylated small molecule ligands for 30 min at RT to generate affinity resins for kinase assays. The liganded beads were blocked with excess biotin and washed with blocking buffer (1% BSA, 0.05% Tween 20, 1 mM DTT; SeaBlock [Pierce]) to remove unbound ligand and to reduce non-specific phage binding. Binding reactions were assembled by combining kinases, liganded affinity beads, and test compounds in 1x binding buffer (20% 0.17x PBS, 0.05% Tween 20, 6 mM DTT; SeaBlock). Test compounds were prepared as 100x stocks in 100% DMSO and directly diluted into the assay. All reactions were performed in polypropylene 384-well plates in a final volume of 0.02 ml. The assay plates were incubated at RT with shaking for 1 h and the affinity beads were washed with wash buffer (1x PBS, 0.05% Tween 20). […] The kinase concentration in the eluates was measured by qRT-PCR.

The next data set deals with WT mice (C57BL/6). The data set can be described thus: Drug tolerability assessment (multiple ascending dose). The format is in vivo. The following applies: for maximum tolerable dose: IP daily, multiple ascending dose, WT mice; for therapeutic safe dose in animals: both, C57BL/6, mouse. As for the experimental part:
3–4-mo-old WT mice (male and female, C57BL/6) were IP injected with starting doses of 10 mg/kg of BK40143 or BK40197 daily for 5 d before a 2-d washout period. […] BK40197 dosage was increased in 10 mg/kg increments for 5 d each until the maximum tolerable dose of 50 mg/kg was reached. All animal work was approved by GUACUC.

Another data set concerns the target T2, PIKFYVE (Homo sapiens, UniProt Q9Y2I7).
T2 construct: DNA label for qPCR read-out (T7 phage fusion or DNA tag); purchased Eurofins DiscoverX Corporation; host or cells: T7 phage in E. coli (BL21-derived) or HEK-293
The data set can be described thus: KINOMEscan competition binding, PIKFYVE. The settings on record: 10 µM compound; for remaining binding at 10 µM: lower = stronger binding, read-out: PIKFYVE %Ctrl @ 10000nM (POC). The procedure: as §1, §2, §3, §4

The test system of data set [1] is peripheral mast cells of TgAPP mice. The data set can be described thus: In vivo mast cell analysis (flow cytometry of whole blood, CD117 / FcεR1). Also on record: species or system mouse; key to CD117 (single-labelled mast cells): % of single-labelled (CD117+) mast cells; CD117 Total: unit not given here. The settings on record: for ratio of immature-to-mature mast cells (c-KIT+ versus c-KIT+/FcεR1α+) in whole blood: TgAPP mice, BK40143 5 mg/kg, BK40197 45 mg/kg, 6 wk, vs DMSO. From the text: c-KIT is responsible for mast cell development and homeostasis ([Lake et al, 1978]; [Linnekin, 1999]; [Kitamura et al, 2006]). TKs are the central driving force for processes leading to mast cell activation ([Parravicini et al, 2002]; [Gomez et al, 2005]). Multiple receptors are capable of mediating or modifying mast cell activation ([Kraft & Kinet, 2007]; [Kuehn & Gilfillan, 2007]), the major receptor responsible being FcεRI, the high affinity receptor for immunoglobulin E (IgE) ([Rivera & Gilfillan, 2006]). Mast cells are tissue-resident cells of hematopoietic lineage which are derived from CD13^+CD34^+KIT(CD117)^+ bone marrow pluripotent progenitors ([Kirshenbaum et al, 1999]). Although mast cells play an important role in the innate immune system ([Marshall, 2004]; [Galli et al, 2005]), these cells are also responsible for the detrimental exaggerated reactions to antigen ([Galli et al, 2008]) that follow the release of potent inflammatory mediators as a consequence of receptor-mediated mast cell activation ([Metcalfe et al, 1997]). The progression of these cells to fully mature mast cells is dependent on c-KIT activation which occurs because of stem cell factor-induced c-KIT dimerization and auto-phosphorylation ([Kirshenbaum et al, 1999]). To verify the functional effects of BK40143 and BK40197 on c-KIT inhibition, we investigated whether inhibition of c-KIT with BK40143 and BK40197 affects peripheral mast cell populations in vivo. We collected whole blood samples from Tg(SwDI) (referred to as TgAPP) mice treated with 5 or 45 mg/kg of each drug, respectively, or DMSO for 6 wk before isolating mast cells for analysis via flow cytometry (Fig 3A–C). Whole blood was sorted for mast cells using a triple gating strategy: 647 anti-CD45 to isolate leukocytes, PE anti-c-KIT to isolate mast cells, and APC/fire anti-FcεR1α to identify mature mast cells. The ratio of immature-to-mature mast cells (c-KIT+ versus c-KIT+/ FcεR1α+) was compared between c-KIT inhibited and DMSO-treated controls to determine the functional consequence of c-KIT inhibition on peripheral mast cell maturation.
Whole blood samples were harvested from the right ventricle of treated and untreated mice and added to 1,000 U/ml heparin-coated tubes to prevent coagulation. 100 μl of blood was then treated with three flow-conjugated antibodies: 647 anti-mouse CD45 (cat. #103123; BioLegend), PE anti-mouse CD117 (c-KIT) (cat. # 105807; BioLegend), and APC/fire 750 anti-mouse FcεR1α (cat. #134339; BioLegend) for 30 min, then treated with 1x RBC lysis buffer (cat. #420301; BioLegend) for 20 min. Cells were washed and resuspended in cell staining buffer before being analyzed on a Becton Dickinson LSRFortessas flow cytometer. Immature-to-mature mast cell ratio was calculated by dividing the percentage of single-labelled (CD117+) mast cells by the total number of c-KIT expressing cells (CD117+ plus CD117+ FcεR1+). All animal work was approved by Georgetown University Animal Care and Use Committee (GUACUC).
In general terms: In flow cytometry, cells or beads pass a laser one at a time.

Where [2] appears, read: 5mg/kg, whole blood, individual mice.

T2 sequence (Q9Y2I7 whole entry, the tested form may be a part): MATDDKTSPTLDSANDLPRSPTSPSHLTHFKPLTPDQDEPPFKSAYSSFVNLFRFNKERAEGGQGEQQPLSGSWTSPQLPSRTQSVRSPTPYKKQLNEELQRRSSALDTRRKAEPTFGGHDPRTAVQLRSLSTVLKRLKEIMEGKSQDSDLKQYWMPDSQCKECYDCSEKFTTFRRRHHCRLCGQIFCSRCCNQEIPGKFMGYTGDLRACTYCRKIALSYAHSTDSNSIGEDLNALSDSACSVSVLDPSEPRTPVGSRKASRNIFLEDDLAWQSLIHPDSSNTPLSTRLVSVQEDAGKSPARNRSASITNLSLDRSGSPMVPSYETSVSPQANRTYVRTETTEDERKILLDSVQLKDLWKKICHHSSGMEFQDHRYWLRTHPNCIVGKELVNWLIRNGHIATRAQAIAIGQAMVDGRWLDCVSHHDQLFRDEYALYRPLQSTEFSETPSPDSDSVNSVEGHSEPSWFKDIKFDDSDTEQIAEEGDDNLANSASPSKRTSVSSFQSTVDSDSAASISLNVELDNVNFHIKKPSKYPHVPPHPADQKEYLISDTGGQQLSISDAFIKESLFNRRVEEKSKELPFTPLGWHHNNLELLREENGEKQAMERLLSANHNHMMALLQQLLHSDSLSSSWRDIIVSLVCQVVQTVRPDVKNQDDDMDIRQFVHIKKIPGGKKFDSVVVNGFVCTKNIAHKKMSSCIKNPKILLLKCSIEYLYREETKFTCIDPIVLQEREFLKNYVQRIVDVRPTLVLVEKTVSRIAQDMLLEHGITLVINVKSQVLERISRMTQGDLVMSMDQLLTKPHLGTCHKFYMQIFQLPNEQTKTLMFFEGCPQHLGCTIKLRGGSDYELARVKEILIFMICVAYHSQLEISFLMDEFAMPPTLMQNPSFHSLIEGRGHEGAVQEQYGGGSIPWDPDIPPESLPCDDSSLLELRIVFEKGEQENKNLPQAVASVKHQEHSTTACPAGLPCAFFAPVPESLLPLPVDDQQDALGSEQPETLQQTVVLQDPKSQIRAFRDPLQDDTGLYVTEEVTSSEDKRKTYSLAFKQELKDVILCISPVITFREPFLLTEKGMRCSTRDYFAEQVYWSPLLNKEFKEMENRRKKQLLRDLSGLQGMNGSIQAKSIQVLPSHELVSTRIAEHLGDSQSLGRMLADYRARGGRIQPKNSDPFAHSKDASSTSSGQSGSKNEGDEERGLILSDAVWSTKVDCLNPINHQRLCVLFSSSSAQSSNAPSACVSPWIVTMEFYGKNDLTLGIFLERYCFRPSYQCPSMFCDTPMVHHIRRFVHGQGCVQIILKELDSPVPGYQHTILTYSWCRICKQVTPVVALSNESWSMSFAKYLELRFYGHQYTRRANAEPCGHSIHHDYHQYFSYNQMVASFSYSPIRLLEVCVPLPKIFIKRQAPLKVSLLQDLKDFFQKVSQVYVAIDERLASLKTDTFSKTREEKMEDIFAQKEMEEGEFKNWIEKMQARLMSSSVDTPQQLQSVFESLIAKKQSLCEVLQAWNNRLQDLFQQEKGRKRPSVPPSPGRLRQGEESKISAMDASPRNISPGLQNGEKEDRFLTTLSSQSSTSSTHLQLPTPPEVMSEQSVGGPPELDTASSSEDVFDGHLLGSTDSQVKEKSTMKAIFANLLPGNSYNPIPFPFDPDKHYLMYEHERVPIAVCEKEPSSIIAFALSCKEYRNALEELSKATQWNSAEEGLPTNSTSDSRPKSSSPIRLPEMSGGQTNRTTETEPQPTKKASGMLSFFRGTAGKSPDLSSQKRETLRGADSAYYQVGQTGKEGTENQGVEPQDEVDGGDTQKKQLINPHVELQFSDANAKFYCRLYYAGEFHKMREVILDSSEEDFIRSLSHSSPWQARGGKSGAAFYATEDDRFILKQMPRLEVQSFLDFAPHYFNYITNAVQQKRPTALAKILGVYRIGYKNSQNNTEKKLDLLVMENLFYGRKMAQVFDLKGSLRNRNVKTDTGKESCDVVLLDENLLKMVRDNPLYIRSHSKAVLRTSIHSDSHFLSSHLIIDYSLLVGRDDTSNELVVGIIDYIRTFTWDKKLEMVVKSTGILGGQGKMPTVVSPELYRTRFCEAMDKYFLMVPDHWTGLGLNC

A word on the inhibition: it is how much of the control response was suppressed. Take `Cc1cccc(-c2cc3nccc(Nc4ccccc4)c3s2)c1` [BK40143]: at PDGFRa, the inhibition at 10 µM came to 98.1% and the remaining binding at 10 µM lay within 1 to 10%. The same compound showed a maximum tolerable dose in the data set on WT mice (C57BL/6) of 7.5 mg/kg. For the same compound, in the data set on WT mice (C57BL/6) (in vivo), the “therapeutic safe dose in animals” value is “up to 7.5 mg/kg”. Besides, the “tolerability at starting dose” value in the data set on WT mice (C57BL/6) (mouse, in vivo) was “rodent mortality”. For the same compound, on PIKFYVE, the inhibition at 10 µM is 32% and the remaining binding at 10 µM amounted to 68%. In addition, in data set [1] (setting [2]), the “CD117 (single-labelled mast cells)” value was 1.06 and 0.7 and 1.08 and 1.14 and 0.83 and 6.55 and 2.98; the “CD117 / Total (immature-to-mature mast cell ratio)” value was 0.9815 and 0.9589 and 0.9231 and 0.9661 and 0.9881 and 0.9278 and 0.9141; the “CD117/FcER1 (double-labelled mast cells)” value was 0.02 and 0.03 and 0.09 and 0.04 and 0.01 and 0.51 and 0.28; the “CD117 Total” value is 1.08 and 0.73 and 1.17 and 1.18 and 0.84 and 7.06 and 3.26. The “ratio of immature-to-mature mast cells (c-KIT+ versus c-KIT+/FcεR1α+) in whole blood” value in data set [1] is on record as “significantly greater ratio of immature-to-mature mast cells”.

For `Cc1cccc(-c2cc3nccc(N4CCOCC4)c3s2)c1` [BK40197], at PDGFRa, the inhibition at 10 µM came to 74% and the remaining binding at 10 µM was 26%. This compound also came in with a maximum tolerable dose in the data set on WT mice (C57BL/6) of 45 mg/kg. Besides, the “therapeutic safe dose in animals” value with WT mice (C57BL/6) (in vivo) is reported as ≤ 45 mg/kg. In addition, at PIKFYVE, the inhibition at 10 µM turned out to be 99.6% and the remaining binding at 10 µM stood at 0.4%. For the same compound, in data set [1], the “ratio of immature-to-mature mast cells (c-KIT+ versus c-KIT+/FcεR1α+) in whole blood” value was “not statistically significant (P = 0.07) increase in immature-to-mature mast cell ratio”.
